Like-named read-outs stand apart in the source and are kept apart here.
Key:
[1] = target: wild-type un-phosphorylated FGFR2 (Homo sapiens, UniProt P21802); assay: FGFR Enzymatic Assay (FRET peptide phosphorylation), FGFR2
[2] = target: wild-type un-phosphorylated FGFR1 (Homo sapiens, UniProt P11362); assay: FGFR Enzymatic Assay (FRET peptide phosphorylation), FGFR1; conditions: pre-incubated for 4 hours
[3] = target: wild-type un-phosphorylated FGFR4 (Homo sapiens, UniProt P22455); assay: FGFR Enzymatic Assay (FRET peptide phosphorylation), FGFR4
[4] = target: wild-type un-phosphorylated FGFR3 (Homo sapiens, UniProt P22607); assay: FGFR Enzymatic Assay (FRET peptide phosphorylation), FGFR3
[5] = read-out: FGFR2, wild-type un-phosphorylated FGFR2, pre-incubated for 4 hours
[6] = FGFR1, wild-type un-phosphorylated FGFR1
[7] = read-out: FGFR1, wild-type un-phosphorylated FGFR1
[8] = read-out: FGFR4, wild-type un-phosphorylated FGFR4, pre-incubated for 4 hours
[9] = read-out: FGFR3, wild-type un-phosphorylated FGFR3, pre-incubated for 4 hours

Chain of wild-type un-phosphorylated FGFR1 (P11362 22-822): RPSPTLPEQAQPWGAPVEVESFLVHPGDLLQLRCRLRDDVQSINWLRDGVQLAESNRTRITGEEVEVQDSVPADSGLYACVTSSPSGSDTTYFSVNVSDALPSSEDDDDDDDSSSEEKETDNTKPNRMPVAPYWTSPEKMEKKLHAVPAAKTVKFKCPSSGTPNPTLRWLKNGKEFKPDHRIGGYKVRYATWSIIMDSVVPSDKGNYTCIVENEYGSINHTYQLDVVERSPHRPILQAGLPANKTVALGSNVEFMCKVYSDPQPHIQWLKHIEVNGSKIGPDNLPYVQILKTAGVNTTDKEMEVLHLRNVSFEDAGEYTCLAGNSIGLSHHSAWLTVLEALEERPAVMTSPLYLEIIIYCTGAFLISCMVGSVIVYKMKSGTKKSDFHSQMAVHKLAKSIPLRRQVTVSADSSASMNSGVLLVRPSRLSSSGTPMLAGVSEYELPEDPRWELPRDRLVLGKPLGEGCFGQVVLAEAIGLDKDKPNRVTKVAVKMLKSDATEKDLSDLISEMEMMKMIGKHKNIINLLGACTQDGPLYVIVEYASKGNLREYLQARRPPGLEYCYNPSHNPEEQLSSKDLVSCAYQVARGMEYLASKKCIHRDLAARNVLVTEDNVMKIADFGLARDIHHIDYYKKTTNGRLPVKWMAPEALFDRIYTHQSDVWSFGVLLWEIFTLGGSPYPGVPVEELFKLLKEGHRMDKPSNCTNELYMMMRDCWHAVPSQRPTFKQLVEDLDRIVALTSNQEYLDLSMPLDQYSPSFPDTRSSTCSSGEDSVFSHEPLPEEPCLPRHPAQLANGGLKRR
Chain of wild-type un-phosphorylated FGFR4 (P22455 22-802): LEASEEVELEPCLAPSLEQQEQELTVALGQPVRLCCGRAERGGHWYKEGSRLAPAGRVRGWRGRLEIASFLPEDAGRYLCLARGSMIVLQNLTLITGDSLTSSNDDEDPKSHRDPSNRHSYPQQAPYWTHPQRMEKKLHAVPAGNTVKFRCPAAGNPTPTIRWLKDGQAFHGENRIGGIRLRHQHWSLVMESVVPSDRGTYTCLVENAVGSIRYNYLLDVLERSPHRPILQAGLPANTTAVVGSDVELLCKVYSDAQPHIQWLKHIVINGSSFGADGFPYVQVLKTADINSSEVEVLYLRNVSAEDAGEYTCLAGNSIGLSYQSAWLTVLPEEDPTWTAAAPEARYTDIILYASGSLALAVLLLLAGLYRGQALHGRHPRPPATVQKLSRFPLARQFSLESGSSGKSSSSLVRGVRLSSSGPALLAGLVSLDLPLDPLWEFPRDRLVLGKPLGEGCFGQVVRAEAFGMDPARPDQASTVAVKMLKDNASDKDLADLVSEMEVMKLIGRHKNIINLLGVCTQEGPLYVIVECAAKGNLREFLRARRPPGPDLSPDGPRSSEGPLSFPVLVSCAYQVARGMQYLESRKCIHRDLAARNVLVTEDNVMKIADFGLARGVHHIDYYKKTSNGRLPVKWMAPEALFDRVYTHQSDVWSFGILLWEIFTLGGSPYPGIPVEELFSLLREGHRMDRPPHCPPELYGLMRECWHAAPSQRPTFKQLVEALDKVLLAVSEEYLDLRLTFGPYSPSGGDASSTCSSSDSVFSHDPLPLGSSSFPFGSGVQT
Chain of wild-type un-phosphorylated FGFR2 (P21802 22-821): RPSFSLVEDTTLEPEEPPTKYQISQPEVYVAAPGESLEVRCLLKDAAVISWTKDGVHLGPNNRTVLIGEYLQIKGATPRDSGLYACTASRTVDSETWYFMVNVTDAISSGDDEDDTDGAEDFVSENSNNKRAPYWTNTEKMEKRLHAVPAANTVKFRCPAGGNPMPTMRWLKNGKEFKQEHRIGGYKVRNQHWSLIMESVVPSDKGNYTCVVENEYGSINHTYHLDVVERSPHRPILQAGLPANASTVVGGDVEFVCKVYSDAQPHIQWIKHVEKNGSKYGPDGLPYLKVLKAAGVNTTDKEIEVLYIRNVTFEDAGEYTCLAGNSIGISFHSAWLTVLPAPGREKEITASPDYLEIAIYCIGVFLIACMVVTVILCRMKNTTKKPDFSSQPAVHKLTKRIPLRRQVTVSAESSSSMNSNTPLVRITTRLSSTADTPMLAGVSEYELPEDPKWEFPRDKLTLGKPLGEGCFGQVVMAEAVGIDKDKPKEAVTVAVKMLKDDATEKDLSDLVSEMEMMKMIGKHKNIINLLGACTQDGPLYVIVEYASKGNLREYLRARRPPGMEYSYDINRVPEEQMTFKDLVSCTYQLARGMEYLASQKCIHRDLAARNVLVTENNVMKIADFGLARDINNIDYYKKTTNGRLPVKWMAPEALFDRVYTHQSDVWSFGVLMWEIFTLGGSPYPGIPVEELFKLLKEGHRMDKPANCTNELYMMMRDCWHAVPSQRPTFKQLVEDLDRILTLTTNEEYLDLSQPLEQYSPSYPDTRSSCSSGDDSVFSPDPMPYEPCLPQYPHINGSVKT
Chain of wild-type un-phosphorylated FGFR3 (P22607 23-806): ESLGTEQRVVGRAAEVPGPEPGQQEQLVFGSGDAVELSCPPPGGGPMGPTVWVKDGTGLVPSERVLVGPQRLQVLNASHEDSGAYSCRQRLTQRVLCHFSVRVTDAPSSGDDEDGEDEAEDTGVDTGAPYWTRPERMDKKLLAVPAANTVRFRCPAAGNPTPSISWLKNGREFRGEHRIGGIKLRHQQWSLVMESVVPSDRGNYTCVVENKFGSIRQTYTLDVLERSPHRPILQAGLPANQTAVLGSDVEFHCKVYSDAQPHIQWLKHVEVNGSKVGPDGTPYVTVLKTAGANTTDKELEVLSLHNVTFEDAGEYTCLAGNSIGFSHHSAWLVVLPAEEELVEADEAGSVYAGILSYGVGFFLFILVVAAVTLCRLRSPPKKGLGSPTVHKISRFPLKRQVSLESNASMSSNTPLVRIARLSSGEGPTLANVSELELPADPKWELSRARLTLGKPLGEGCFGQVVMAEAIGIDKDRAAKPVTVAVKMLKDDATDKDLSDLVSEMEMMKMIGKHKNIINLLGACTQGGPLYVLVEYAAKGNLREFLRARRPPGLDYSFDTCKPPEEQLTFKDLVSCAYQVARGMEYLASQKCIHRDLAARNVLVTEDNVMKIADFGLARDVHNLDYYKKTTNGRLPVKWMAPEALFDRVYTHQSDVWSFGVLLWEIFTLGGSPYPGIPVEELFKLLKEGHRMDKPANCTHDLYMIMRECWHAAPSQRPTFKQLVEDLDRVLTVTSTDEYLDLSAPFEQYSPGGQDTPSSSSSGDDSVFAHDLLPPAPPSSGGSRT

IC50 [1, 5]	IC50 [2, 6]	IC50 [3]	IC50 [4]	IC50 [1]	IC50 [2, 7]	IC50 [3, 8]	IC50 [4, 9]	Structure (SMILES)
6 to 40 nM	40 to 100 nM	> 100 nM	< 6 nM					COc1cc2[nH]nc(-c3cnn(C)c3)c2nc1-c1cccc2c1CC(O)C2 (single isomer, unassigned) [Example 10, 4-(6-Methoxy-3-(1-methyl-1H-pyrazol-4-yl)-1H-pyrazolo[4,3-b]pyridin-5-yl)-2,3-dihydro-1H-inden-2-ol]
		> 100 nM	< 6 nM	< 6 nM	6 to 40 nM			[2H]C1(O)Cc2cccc(-c3nc4c(-c5cnn(C)c5)n[nH]c4cc3OC)c2C1 (single isomer, unassigned) [Example 74, 4-(6-Methoxy-3-(1-methyl-1H-pyrazol-4-yl)-1H-pyrazolo[4,3-b]pyridin-5-yl) 2,3-dihydro-1H-inden-2-d-2-ol]
			< 6 nM	< 6 nM	6 to 40 nM	6 to 40 nM		COc1cc2[nH]nc(-c3ccc(C4CCN(C(=O)CO)C4)nc3)c2nc1-c1cccc2c1CCC2 (single isomer, unassigned) [Example 101, 1-(3-(5-(5-(2,3-Dihydro-1H-inden-4-yl)-6-methoxy-1H-pyrazolo[4,3-b]pyridin-3-yl)pyridin-2-yl)pyrrolidin-1-yl)-2-hydroxyethan-1-one]
< 6 nM					6 to 40 nM	6 to 40 nM	< 6 nM	COc1cc2[nH]nc(-c3ccc(C4CCN(C(=O)CO)C4)nc3)c2nc1-c1cccc2c1CCC2 (single isomer, unassigned) [Example 102, 1-(3-(5-(5-(2,3-Dihydro-1H-inden-4-yl)-6-methoxy-1H-pyrazolo[4,3-b]pyridin-3-yl)pyridin-2-yl)pyrrolidin-1-yl)-2-hydroxyethan-1-one]
			< 6 nM	< 6 nM	6 to 40 nM	6 to 40 nM		COc1cc2[nH]nc(-c3ccc(C4CCN(C(C)=O)C4)nc3)c2nc1-c1cccc2c1CCC2 (single isomer, unassigned) [Example 103, 1-(3-(5-(5-(2,3-Dihydro-1H-inden-4-yl)-6-methoxy-1H-pyrazolo[4,3-b]pyridin-3-yl)pyridin-2-yl)pyrrolidin-1-yl)ethan-1-one]
< 6 nM					6 to 40 nM	6 to 40 nM	< 6 nM	COc1cc2[nH]nc(-c3ccc(C4CCN(C(C)=O)C4)nc3)c2nc1-c1cccc2c1CCC2 (single isomer, unassigned) [Example 104, 1-(3-(5-(5-(2,3-Dihydro-1H-inden-4-yl)-6-methoxy-1H-pyrazolo[4,3-b]pyridin-3-yl)pyridin-2-yl)pyrrolidin-1-yl)ethan-1-one]
			< 6 nM	< 6 nM	6 to 40 nM	6 to 40 nM		COc1cc2[nH]nc(-c3ccc(C4CCN(C5CCNC5=O)C4)nc3)c2nc1-c1cccc2c1CCC2 (single isomer, unassigned) [Example 105, 3-(5-(5-(2,3-Dihydro-1H-inden-4-yl)-6-methoxy-1H-pyrazolo[4,3-b]pyridin-3-yl)pyridin-2-yl)-[1,3′-bipyrrolidin]-2′-one]
			< 6 nM	< 6 nM	6 to 40 nM	6 to 40 nM		COc1cc2[nH]nc(-c3ccc(C4CCN(C5CCN(C)C5=O)C4)nc3)c2nc1-c1cccc2c1CCC2 (single isomer, unassigned) [Example 106, 3-(5-(5-(2,3-Dihydro-1H-inden-4-yl)-6-methoxy-1H-pyrazolo[4,3-b]pyridin-3-yl)pyridin-2-yl)-1′-methyl-[1,3′-bipyrrolidin]-2′-one]
			< 6 nM	< 6 nM	6 to 40 nM	6 to 40 nM		COc1cc2[nH]nc(-c3ccc(C4CCN(C(C)C(N)=O)C4)nc3)c2nc1-c1cccc2c1CCC2 (single isomer, unassigned) [Example 107, 2-(3-(5-(5-(2,3-Dihydro-1H-inden-4-yl)-6-methoxy-1H-pyrazolo[4,3-b]pyridin-3-yl)pyridin-2-yl)pyrrolidin-1-yl)propanamide]
			< 6 nM	< 6 nM	6 to 40 nM	6 to 40 nM		COc1cc2[nH]nc(-c3ccc(C4CCN(C(=O)C5COCCN5C)C4)nc3)c2nc1-c1cccc2c1CCC2 (single isomer, unassigned) [Example 109]
			< 6 nM	< 6 nM	6 to 40 nM	6 to 40 nM		COc1cc2[nH]nc(-c3ccc(C4CCC(N(C)C(=O)CO)C4)nc3)c2nc1-c1cccc2c1CCC2 (single isomer, unassigned) [Example 155, N-(3-(5-(5-(2,3-Dihydro-1H-inden-4-yl)-6-methoxy-1H-pyrazolo[4,3-b]pyridin-3-yl)pyridin-2-yl)cyclopentyl)-2-hydroxy-N-methylacetamide]
			< 6 nM	< 6 nM	6 to 40 nM	6 to 40 nM		COCC(=O)N1CC[C@H](n2cc(-c3n[nH]c4cc(OC)c(-c5cccc6c5CCC6C#N)nc34)cn2)C1 (single isomer, unassigned) [Example 168]
			< 6 nM	< 6 nM	6 to 40 nM	6 to 40 nM		COc1cc2[nH]nc(-c3ccc(C4CCN(C(=O)N5CCOCC5)CC4)nc3)c2nc1-c1cccc2c1CCC2C#N (single isomer, unassigned) [Example 181, 4-(6-Methoxy-3-(6-(1-(morpholine-4-carbonyl)piperidin-4-yl)pyridin-3-yl)-1H-pyrazolo[4,3-b]pyridin-5-yl)-2,3-dihydro-1H-indene-1-carbonitrile]
			< 6 nM	< 6 nM	6 to 40 nM	6 to 40 nM		COc1cc2[nH]nc(-c3ccc(C4CCN(C(C)=O)CC4)nc3)c2nc1-c1cccc2c1CCC2C#N (single isomer, unassigned) [Example 182, 4-(3-(6-(1-Acetylpiperidin-4-yl)pyridin-3-yl)-6-methoxy-1H-pyrazolo[4,3-b]pyridin-5-yl)-2,3-dihydro-1H-indene-1-carbonitrile]
			< 6 nM	< 6 nM	6 to 40 nM	6 to 40 nM		COc1cc2[nH]nc(-c3ccc(C4CCN(C(C)=O)C4)nc3)c2nc1-c1cccc2c1CCC2C#N (single isomer, unassigned) [Example 183, 4-(3-(6-(1-Acetylpyrrolidin-3-yl)pyridin-3-yl)-6-methoxy-1H-pyrazolo[4,3-b]pyridin-5-yl)-2,3-dihydro-1H-indene-1-carbonitrile]
			< 6 nM	< 6 nM	6 to 40 nM	6 to 40 nM		COc1cc2[nH]nc(-c3ccc(C4CCN(C(=O)N5CCOCC5)C4)nc3)c2nc1-c1cccc2c1CCC2C#N (single isomer, unassigned) [Example 184, 4-(6-Methoxy-3-(6-(1-(morpholine-4-carbonyl)pyrrolidin-3-yl)pyridin-3-yl)-1H-pyrazolo[4,3-b]pyridin-5-yl)-2,3-dihydro-1H-indene-1-carbonitrile]
	40 to 100 nM		< 6 nM	< 6 nM		6 to 40 nM		COc1cc2[nH]nc(-c3cnn(CC#N)c3)c2nc1-c1cccc2c1CCC2C#N (single isomer, unassigned) [Example 185, 4-(3-(1-(Cyanomethyl)-1H-pyrazol-4-yl)-6-methoxy-1H-pyrazolo[4,3-b]pyridin-5-yl)-2,3-dihydro-1H-indene-1-carbonitrile]
	40 to 100 nM	40 to 100 nM		< 6 nM				COc1cc2[nH]nc(-c3cnn(Cc4ccncc4)c3)c2nc1-c1cccc2c1CCC2 [Example 27, 5-(2,3-Dihydro-1H-inden-4-yl)-6-methoxy-3-(1-(pyridin-4-ylmethyl)-1H-pyrazol-4-yl)-1H-pyrazolo[4,3-b]pyridine]
			< 6 nM	< 6 nM	6 to 40 nM			COc1cc2[nH]nc(-c3ccc(C45CC4CN(C(=O)[C@H]4COCCN4C)C5)nc3)c2nc1-c1cccc2c1CCC2 (stereo partly drawn) [Example 192, (1-(5-(5-(2,3-Dihydro-1H-inden-4-yl)-6-methoxy-1H-pyrazolo[4,3-b]pyridin-3-yl)pyridin-2-yl)-3-azabicyclo[3.1.0]hexan-3-yl)((R)-4-methylmorpholin-3-yl)methanone]
			< 6 nM	< 6 nM	6 to 40 nM			COc1cc2[nH]nc(-c3ccc(C4(C#N)CCN(C(=O)[C@H]5COCCN5C)C4)nc3)c2nc1-c1cccc2c1CCC2 (stereo partly drawn) [Example 195, 3-(5-(5-(2,3-Dihydro-1H-inden-4-yl)-6-methoxy-1H-pyrazolo[4,3-b]pyridin-3-yl)pyridin-2-yl)-1-((R)-4-methylmorpholine-3-carbonyl)pyrrolidine-3-carbonitrile]
			< 6 nM	< 6 nM	6 to 40 nM			COc1cc2[nH]nc(-c3ccc(C4(C#N)CCN(C(=O)[C@H]5COCCN5C)CC4)nc3)c2nc1-c1cccc2c1CCC2 [Example 196, (R)-4-(5-(5-(2,3-Dihydro-1H-inden-4-yl)-6-methoxy-1H-pyrazolo[4,3-b]pyridin-3-yl)pyridin-2-yl)-1-(4-methylmorpholine-3-carbonyl)piperidine-4-carbonitrile]
			< 6 nM	< 6 nM	6 to 40 nM			COc1cc2[nH]nc(-c3cnn(C45CC4CN(C(=O)CO)C5)c3)c2nc1-c1cccc2c1CCC2 (centres unmarked) [Example 197, 1-(1-(4-(5-(2,3-Dihydro-1H-inden-4-yl)-6-methoxy-1H-pyrazolo[4,3-b]pyridin-3-yl)-1H-pyrazol-1-yl)-3-azabicyclo[3.1.0]hexan-3-yl)-2-hydroxyethan-1-one]
